What was measured:
[1] = system: COVID-19 S1 antigen; type: in vivo, SARS-CoV-2; conditions: Example 2, FIG. 6a; 5 μg each S1 and RBD; L-pampo 75 μg Pam3CSK4 + 60 μg poly(I:C) vs Alum, Addavax, AddaS03; Balb/c mice i.m. twice at 3-week intervals, serum 2 weeks after second immunization
[2] = system: COVID-19 RBD antigen; type: in vivo, SARS-CoV-2; conditions: Example 2, FIG. 6b; 5 μg each S1 and RBD; L-pampo 75 μg Pam3CSK4 + 60 μg poly(I:C) vs Alum, Addavax, AddaS03; Balb/c mice i.m. twice at 3-week intervals, serum 2 weeks after second immunization
[3] = system: Mouse splenocytes; assay: IFN-γ ELISPOT on splenocytes of immunized mice (cellular immune response); type: in vivo, Balb/c mice; conditions: Example 3, FIG. 11; test vaccine using only poly(I:C) as adjuvant, among all test vaccines

Row | Substance | S1 antigen-specific antibody titer [1] | RBD antigen-specific antibody titer [2] | IFN-γ spot formation (ELISPOT) [3]
1 | N-palmitoyl-S-[2,3-bis(palmitoyloxy)-(2RS)-propyl]-[R]-cystein-SKKKK [Pam3CSK4] | relatively superior | relatively superior | –
2 | poly(I:C) | – | – | most IFN-γ spot formation

Source: US20230390384A1 (priority 2020, published 2023)
